One test deals with HIV-1 (strain: HTLVIIIB). Briefly: microbe, parasite or virus in culture. The settings on record: PBMNC, read-out: PBMNC IC50 [RT]. The format is cell-based. The method, then:
(§1) Percent inhibition of viral replication was calculated by comparing the p24 and RT activity values from the test substance-treated infected cells with those from untreated infected cells. In parallel, the cytotoxicity of the compounds was examined using a microculture tetrazolium assay (MTA) of cell proliferation, as described.in the Zarling, Enrice, and Uckun articles Supra).
(§2) Cellular Assays of Anti-HIV Activity and Cytotoxicity. […] Percent viral inhibition was calculated by comparing the RT activity values from the test substance-treated infected cells with RT values from untreated infected cells (i.e., virus controls).

The subject of test [1] is HIV-1 (HTLVIIIB) in TK-deficient CEM T-cells. Briefly: Inhibition of HIV-1 replication in TK-deficient CEM T-cells (p24 / RT activity). It is filed as cell-based. The settings on record: TK-deficient CEM T-cells, read-out: CEM IC50 [RT]. The method, then: as §1, §2
The test system of test [2] is NRTI-resistant recombinant HIV-1 isolates. Briefly: Documented fold decreased susceptibility of recombinant HIV-1 clones. The settings on record: for mean reduction in susceptibility: mean over 6 recombinant clones; for median reduction in susceptibility: median over 6 recombinant clones. The format is cell-based.
Test [3] has the same test system. The settings on record: cited from earlier work.
Test [4] shares this test system. Briefly: p24 assay, multi-NRTI-resistant recombinant HIV-1 clones. It is filed as cell-based.
Test [5] has the same test system. The experiment in a line: RT activity assay, multi-NRTI-resistant recombinant HIV-1 clones. The format is cell-based.
In another test the test system is HIV-1 HTLVIIIB
The experiment in a line: microbe, parasite or virus in culture. The note with it: Human immunodeficiency virus 1, PBMC. The method, then: In vitro assays of anti-HIV-1 activity. Normal human peripheral blood mononuclear cells (PBMNC) from HIV-negative donors were cultured 72 hours in RPMI 1640 supplemented with 20% (v/v) heat-inactivated fetal bovine serum (FBS), 3% interleukin-2, 2 mM L-glutamine, 25 mM HEPES, 2 g/L NaHCO3, […], and […] prior to exposure to HIV-1 at a multiplicity of infection (MOI) of 0.1 during a 1 hour adsorption period at 37° C. in a humidified 5% CO2 atmosphere. Subsequently, cells were cultured in 96-well microtiter plates ([…]; 2×10^6 cells/mL) in the presence of various concentrations of d4T phosphoramidates and aliquots of culture supernatants were removed from the wells on the 7th day after infection for p24 antigen assays, as previously described (Uckun et al., 1998, Antimicrobial Agents and Chem., 42(2):383-388). The applied p24 enzyme immunoassay (EIA) was the unmodified kinetic assay commercially available from Coulter Corporation/Immunotech, Inc. (Westbrooke, Me.), which utilizes a murine mAb to HIV core protein coated onto microwell strips to which the antigen present in the test culture supernatant samples binds. Percent viral inhibition was calculated by comparing the p24 values from untreated infected cells (i.e., virus controls).
The anti-HIV activity of the compounds was examined by evaluating their ability to inhibit HIV replication in peripheral blood mononuclear cells using previously described procedures (Uckun et al., 1998, Antimicrobial Agents and Chem., 42(2):383-388). Percent inhibition of viral replication was calculated by comparing the p24 antigen levels from the test substance-treated infected cells with those from vehicle-treated infected cells.
Antiviral susceptibility assays. Phenotypic drug susceptibility studies of HIV-1 isolates and strains were performed by measuring the production of the p24 gag protein in peripheral blood mononuclear cells (PBMC) from seronegative healthy volunteers in the presence of increasing concentrations of the anti-HIV agent using the quantitative Coulter HIV-1 p24 antigen ezyme immunoassay (EIA) and HIV-1 p24 Antigen Kinetic Standard (Beckman Coulter), as previously described (Uckun, 1998, Antimicrobial Agents and Chemotherapy 37(4): 835-38). Informed consent was obtained from the blood donors according to DHHS guidelines using consent forms approved by the Institutional Review Board. In brief, PBMC were cultured for 72 h in RPMI 1640 medium (Gibco) supplemented with 20% (vol/vol) heat-inactivated fetal bovine serum, 5% human interleukin-2 (Zeptometrix), 2 mM L-glutamine, 25 mM HEPES, 2 g/L NaHCO3, 100 U/ml penicillin/streptomycin (Gibco), 50 μg/ml gentamicin (Gibco), and 5 μg/ml phytohemagglutinin-P (PHA-P) (Sigma) for 24-72 hours prior to exposure to HIV at a multiplicity of infection of 0.001-0.1 during a 1-h adsorbtion period at 37±1° C. in a humidified 5-7% CO2 atmosphere. Subsequently, cells were cultured in 96-well microtiter plates (100 μl/well; 2×10^6 cells/ml, triplicate wells) in the presence of the anti-HIV agents at 6-7 different concentrations ranging from 0.0001 μM to 100 μM, and 25 μL aliquots of culture supernatants were removed from the wells on day 6 after infection for p24 EIA, as previously described (Uckun, 1998, Antimicrobial Agents and Chemotherapy, 37(4):835-38). Controls included uninfected and untreated cells (background control) and infected but untreated (virus control) cells. The p24 EIA utilizes a murine monoclonal antibody to HIV core protein used to coat microwell strips to which the antigen present in the test culture supernatant samples binds. Percent inhibition of viral replication was calculated by comparing the p24 values from the test substance-treated infected cells with p24 values from untreated infected cells (i.e., virus controls). The IC50 values were determined using the Statview statistics program (SAS Institute, Inc.).

Where [6] appears, read: unit not given in Table 5 (0.04 = 40 nM).
Where [7] appears, read: Human immunodeficiency virus 1, read-out: IC50 (nM), p24, recombinant clone 1617-1 (151 complex).
Setting [8] is: Human immunodeficiency virus 1, read-out: IC50 (nM), p24, recombinant clone 4755-5.
Where [9] appears, read: Human immunodeficiency virus 1, read-out: IC50 (nM), p24, recombinant clone 7295-1.
[10] abbreviates: Human immunodeficiency virus 1, read-out: IC50 (nM), p24, recombinant clone 7324-1.
[11] abbreviates: Human immunodeficiency virus 1, read-out: IC50 (nM), p24, recombinant clone 52252-1 in Table 18, 56252-1 in Tables 19 and 20 (K65R, 151 complex).
[12] abbreviates: Human immunodeficiency virus 1, read-out: IC50 (nM), p24, recombinant clone printed 52534-1 in Table 18, 52534-2 in Tables 19 and 20 (69 insertion complex).
Setting [13] is: Human immunodeficiency virus 1, read-out: IC50 (nM), RT, recombinant clone 1617-1.
The mark [14] stands for this setting: Human immunodeficiency virus 1, read-out: IC50 (nM), RT, recombinant clone 4755-5.
[15] abbreviates: Human immunodeficiency virus 1, read-out: IC50 (nM), RT, recombinant clone 7295-1.
[16] abbreviates: Human immunodeficiency virus 1, read-out: IC50 (nM), RT, recombinant clone 7324-1.
[17] abbreviates: Human immunodeficiency virus 1, read-out: IC50 (nM), RT, recombinant clone 52534-2.
The mark [18] stands for this setting: Human immunodeficiency virus 1, read-out: IC50 (nM), RT, recombinant clone 56252-1.
Setting [19] is: Human immunodeficiency virus 1, read-out: mean IC50, RT, mean over 6 multi-NRTI-resistant clones.

Read-outs that look alike come from different tables or passages of the source. Where only a bound is given, the exact number is not on record here.

The term IC50 denotes the midpoint of a concentration-inhibition curve. The IC90 is the concentration at which the effect reaches the 90% level. A higher IC90 goes with a need for much substance.

In the case of “3dT-5′-(para-bromophenyl methoxyalaninyl phosphate) [Compound 2d]”, the IC50 came out at 1.2 µM with HIV-1 (strain: HTLVIIIB) (Table 4), 1.2 µM with HIV-1 (strain: HTLVIIIB) (setting [6]), 22.8 µM in test [1] (Table 4) and 22.8 µM in test [1] (Table 5).

Turning to `COC(=O)C(C)NP(=O)(OCC1CCC(n2cc(C)c(=O)[nH]c2=O)O1)Oc1ccc(F)cc1` (mixture of isomers) [Compound 2c], the half-maximal inhibitory concentration (IC50) in the test with HIV-1 (strain: HTLVIIIB) (Table 4) was determined as 3.1 µM; in test [1] (Table 4), 32.7 µM.

For `COC(=O)C(C)NP(=O)(OCC1CCC(n2cc(C)c(=O)[nH]c2=O)O1)Oc1ccc([N+](=O)[O-])cc1` (mixture of isomers) [Compound 2e], the IC50 stood at 2 µM in the test on HIV-1 (strain: HTLVIIIB) (Table 4) and 22.6 µM in test [1] (Table 4).

As for `COC(=O)[C@H](C)NP(=O)(OC[C@@H]1CC[C@H](n2cc(C)c(=O)[nH]c2=O)O1)Oc1ccccc1` (stereo partly drawn) [Compound 2a], the IC50 in the test on HIV-1 (strain: HTLVIIIB) (Table 4) is 2.1 µM; in the test on HIV-1 (strain: HTLVIIIB) (setting [6]), 2.1 µM; in test [1] (Table 4), 7.5 µM; in test [1] (Table 5), 7.5 µM.

Take `Cc1cn([C@H]2CC[C@@H](CO)O2)c(=O)[nH]c1=O` [Compound 3dT, 3′-deoxythymidine]: the concentration for half-maximal inhibition (IC50) stood at 0.7 µM in the test on HIV-1 (strain: HTLVIIIB) (Human immunodeficiency virus 1, Table 4); 91.2 µM in test [1] (Human immunodeficiency virus 1, T-cell, Table 4); 91.2 µM in test [1] (Human immunodeficiency virus 1, T-cell, Table 5).

Regarding `COC(=O)C(C)NP(=O)(OCC1OC(n2cc(C)c(=O)[nH]c2=O)CC1N=[N+]=[N-])Oc1ccccc1` (stereo not drawn) [Compound 5a], the IC50 in test [1] (Table 5) is 1.7 µM.

For `COC(=O)C(C)NP(=O)(OCC1OC(n2cc(C)c(=O)[nH]c2=O)CC1N=[N+]=[N-])Oc1ccc(OC)cc1` (stereo not drawn) [Compound 5b], the IC50 in the test with HIV-1 (strain: HTLVIIIB) (setting [6]) is 0.1 µM; in test [1] (Table 5), 4.1 µM.

As to `Nc1nc(NC2CC2)c2ncn([C@H]3C=C[C@@H](CO)C3)c2n1` [abacavir], the “mean reduction in susceptibility” value in test [2] is 40 fold. In test [2], the “median reduction in susceptibility” value is recorded as 14.9 fold. Moreover, the Fold decreased susceptibility was above 100 fold in test [3] (recombinant clone 1617-1); 7.7 fold in test [3] (recombinant clone 4755-5); 6.1 fold in test [3] (recombinant clone 7295-1); 4.2 fold in test [3] (recombinant clone 7324-1); 22 fold in test [3] (recombinant clone 52534-2); above 100 fold in test [3] (recombinant clone 56252-1).

Consider `O=c1[nH]cnc2c1ncn2[C@H]1CC[C@@H](CO)O1` [didanosine], for which the “mean reduction in susceptibility” value in test [2] stood at 10.1 fold. Besides, the “median reduction in susceptibility” value in test [2] was found to be 2.9 fold. Moreover, the Fold decreased susceptibility in test [3] (recombinant clone 1617-1) is 23 fold; in test [3] (recombinant clone 4755-5), 2.4 fold; in test [3] (recombinant clone 7295-1), 1.9 fold; in test [3] (recombinant clone 7324-1), 1.7 fold; in test [3] (recombinant clone 52534-2) it was 3.3 fold; in test [3] (recombinant clone 56252-1) it was 28 fold.

For `CC(C)(C)NC(=O)[C@@H]1CN(Cc2cccnc2)CCN1C[C@@H](O)C[C@@H](Cc1ccccc1)C(=O)N[C@H]1c2ccccc2C[C@H]1O` [indinavir], the concentration for half-maximal inhibition (IC50) in test [4] (setting [7]) was 20.5 nM; in test [4] (setting [8]), 9.4 nM; in test [4] (setting [9]), 17.2 nM; in test [4] (setting [10]), 21.8 nM; in test [4] (setting [11]), 9 nM; in test [4] (setting [12]) it was 36.5 nM. Further, the concentration for half-maximal inhibition (IC50) in test [5] (setting [13]) was 5.2 nM; in test [5] (setting [14]), 4.8 nM; in test [5] (setting [15]), 1.4 nM; in test [5] (setting [16]), 5.7 nM; in test [5] (setting [17]), 12.2 nM; in test [5] (setting [18]), 3.7 nM. The concentration for half-maximal inhibition (IC50) in test [5] (setting [19]) is 5.5 ± 1.5 nM.

Consider `Nc1ccn([C@@H]2CS[C@H](CO)O2)c(=O)n1` [lamivudine], for which the IC50 in the test on HIV-1 HTLVIIIB was 0.04 ± 0.025 µM; in test [4] (setting [7]) it was above 10000 nM; in test [4] (setting [8]), above 10000 nM; in test [4] (setting [9]) it was above 10000 nM; in test [4] (setting [10]), 800 nM; in test [4] (setting [11]) it was above 10000 nM. The IC50 in test [4] (setting [12]) is above 10000 nM; in test [5] (setting [13]), above 10000 nM; in test [5] (setting [14]) it was above 10000 nM; in test [5] (setting [15]), above 10000 nM; in test [5] (setting [16]), 634 nM; in test [5] (setting [17]) it was above 10000 nM. The figures for the IC50 in test [5] (setting [18]) and in test [5] (setting [19]) were 7210 nM and 7970 ± 1540 nM, respectively. This compound displayed a concentration for an effect of 90% (IC90) with HIV-1 HTLVIIIB of 1.82 ± 0.747 µM. The “mean reduction in susceptibility” value in test [2] amounted to 215.5 fold. For the same compound, the “median reduction in susceptibility” value in test [2] is 300 fold.

As for `C[C@H](Cn1cnc2c(N)ncnc21)OCP(=O)(O)O` [tenofovir], the “mean reduction in susceptibility” value in test [2] is given as 4.9 fold. In test [2], the “median reduction in susceptibility” value is on record as 3.3 fold. Also, the Fold decreased susceptibility is on record as 2.4 fold in test [3] (recombinant clone 1617-1); 2.3 fold in test [3] (recombinant clone 4755-5); 1.1 fold in test [3] (recombinant clone 7295-1); 8.1 fold in test [3] (recombinant clone 7324-1); 4.2 fold in test [3] (recombinant clone 52534-2); 11 fold in test [3] (recombinant clone 56252-1).
